Read-outs that look alike come from different tables or passages of the source.
Assays:
[1] = biological target: T1, CR518 (chemotactile receptor 518) (Octopus bimaculoides, UniProt A0A0L8FVQ9); assay: whole-cell patch clamp dose-response; format: cell-based
T1 sequence (A0A0L8FVQ9 21-399): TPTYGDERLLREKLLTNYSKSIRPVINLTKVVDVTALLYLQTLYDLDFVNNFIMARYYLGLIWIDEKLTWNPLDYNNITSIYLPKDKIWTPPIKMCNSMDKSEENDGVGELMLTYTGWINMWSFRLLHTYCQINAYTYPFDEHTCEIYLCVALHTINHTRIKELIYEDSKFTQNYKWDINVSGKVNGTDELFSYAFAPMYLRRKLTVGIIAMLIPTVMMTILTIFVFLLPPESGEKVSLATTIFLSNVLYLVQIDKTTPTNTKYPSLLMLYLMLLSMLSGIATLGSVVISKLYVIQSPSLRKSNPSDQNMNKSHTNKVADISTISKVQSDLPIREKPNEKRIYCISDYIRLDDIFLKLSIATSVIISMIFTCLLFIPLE

[2] = biological target: T1, CR518 (chemotactile receptor 518); assay: whole-cell patch clamp dose-response; format: cell-based; remark: listed apart in the source
[3] = tested on: CR840 (chemotactile receptor 840); assay: whole-cell patch clamp dose-response; format: cell-based, Octopus bimaculoides
[4] = biological target: T1, CR518 (chemotactile receptor 518); assay: whole-cell patch clamp screen; format: cell-based

SMILES	EC50 [1] [µM]	EC50 [2] [µM]	other results
C=C(C)[C@@H]1CCC2=CC(=O)C[C@@H](C)[C@]2(C)C1 [nootkatone]	24.7	–	–
CCN(CC)CCCC(C)Nc1ccnc2cc(Cl)ccc12 (stereo not drawn) [chloroquine]	–	92.3	EC50 [3]: 10.3 µM
CC1(C)CCC[C@]2(C)[C@@H](C=O)C(C=O)=CC[C@@H]12 [polygodial]	–	–	whole-cell patch clamp screen (1 mM) [4]: CR518 was potently activated by terpenoids, including the physiologically-relevant sesquiterpene polygodial and furanosesquiterpene atractylon
C=C1CCC[C@]2(C)Cc3occ(C)c3C[C@@H]12 [atractylon]	–	29.4	–
Cc1ccc(C(C)C)cc1O [carvacrol]	204	–	–

Source: article PMC7605239 (Cell, 2020)
